Values after ≈ are worked out from the molar mass of the structure shown. Read-outs that look alike come from different tables or passages of the source.
Tests used:
Caco2 cells = assay: in vitro; settings: Caco2
Method: (§1) Different concentrations of the compounds ranging from 0.003 to 0.2 mg/mL were tested for cytotoxicity against three cell lines; Vero monkey kidney, C3A and Caco2. Vero cells were grown and maintained in MEM, supplemented with 0.1% gentamicin and 5% foetal calf serum, while Caco2 and C3A cells were grown and maintained in DMEM supplemented with 10% foetal calf serum, 1% non-essential amino acids and 1% penicillin-streptomycin. All cells were incubated in a 5% CO2 incubator at 37 °C. Doxorubicin chloride was used as positive control while 10% DMSO used in dissolving the test samples was used as the negative control. The 3-(4,5-dimethylthiazol)-2,5-diphenyl tetrazolium bromide (MTT) assay described by Mosmann with modification by McGaw et al. was used to determine the cytotoxicity of the test samples. The lethal concentration (LC50) value was calculated as the concentration of tested sample resulting in a 50% reduction of absorbance compared to untreated cells. Selectivity index (SI) values were calculated against the MIC using the formula: […]

in vitro [1] = assay: in vitro
Method: as §1

in vitro [2] = assay: in vitro; remark: listed apart in the source
Method: as §1

[3] = system: C. neoformans and A. fumigatus; assay: Mean MIC over the fungal isolates; assay type: cell-based; settings: all time points of Table 3
From the text: The cultures used were Escherichia coli (American Type Culture Collection, ATCC 25922) labelled as 1, E. coli isolates (B1989/17 and B1962/17) labelled as 2 and 3 from equine urine, collected from the Department of Veterinary Tropical Diseases, Faculty of Veterinary Science, University of Pretoria, South Africa, Klebsiella pneumoniae isolate from commercial chicken eggs, Enterococcus faecalis (ATCC 29212), Pseudomonas aeruginosa (ATCC 27853), Staphylococcus aureus (ATCC 29213), Candida albicans from a Gouldian finch, Aspergillus fumigatus from a chicken and Cryptococcus neoformans from a cheetah. These microbial strains were maintained on MHA or SDA for bacteria and fungi respectively, while the isolates were maintained on blood agar.
Ten mg/mL of each fraction and 1 mg/mL of isolated compounds were prepared in 10% DMSO and tested against S. aureus, E. coli, K. pneumoniae, E. faecalis, P. aeruginosa, C. albicans, C. neoformans and A. fumigatus. Cultures were prepared by inoculating each microbial strain from prepared agar plates into sterilized MHB for bacterial and SDB for fungi in sterile McCartney bottles respectively. The inoculums were placed in an orbital shaker incubator. Bacterial strains were incubated at 37 °C for 18 h. Each bacterial culture was diluted in fresh MHB and the absorbance was measured at a wavelength of 560 nm using a microplate reader (Epoch Biotek). The readings were compared to a McFarland standard No. 1 correlating to approximately 3 × 10^8 cfu/mL). For fungi strains, cultures were incubated at 30 °C for 24 h (C. albicans), 72 h (C. neoformans) and 120 h (A. fumigatus) respectively. The resultant cells and spores were washed with sterile normal saline and absorbance was measured at a wavelength of 560 nm and turbidity was adjusted to a McFarland standard 1.This was further diluted in a 1:10 ratio in SDB to a turbidity of 5 × 10^5 cfu/mL. These diluted cultures (bacterial and fungi) were used for the screening following the serial microdilution method of Eloff.

SMILES | Selectivity index (LC50/MIC) (Caco2 cells; A. fumigatus 48 h) | Selectivity index (LC50/MIC) (Caco2 cells; E. coli (1)) | Selectivity index (LC50/MIC) (Caco2 cells; E. coli (2)) | Selectivity index (LC50/MIC) (Caco2 cells; E. coli (3)) | Selectivity index (LC50/MIC) (Caco2 cells; K. pneumoniae) | Selectivity index (LC50/MIC) (Caco2 cells; S. aureus) | CC50 (in vitro [1]) | CC50 (in vitro [2]) | MIC [3] | Mean MIC [3]
COc1ccc(-c2oc3cc(OC)cc(O)c3c(=O)c2OC)cc1 [Compound 3, 5-hydroxy-3,7,4′-trimethoxyflavone] | 5.129 | 2.52 | 0.636 | 0.636 | 1.272 | 9.938 |  |  |  | 
COc1ccc(C2CC(=O)c3c(OC)cc(OC)cc3O2)cc1 (racemic) [Compound 2, (±)-4′,5,7-trimethoxy flavanone] |  |  |  |  |  |  | 200 µg/mL (≈ 636 µM) | > 200 µg/mL | 70 ± 60 µg/mL (≈ 223 µM) | 70 µg/mL
